# pIC50: −log10 of the molar value.
# Assays:
# [1] = test system: Staphylococcus aureus ATCC 25923; test: Broth microdilution MIC; assay type: cell-based; conditions: for MIC: Staphylococcus aureus, ATCC25923, read-out: Minimum Inhibitory Concentrations (MIC)
# [2] = test system: Staphylococcus aureus ATCC 33591 (methicillin-resistant); test: Broth microdilution MIC; assay type: cell-based; conditions: Staphylococcus aureus, ATCC33591, read-out: Minimum Inhibitory Concentrations (MIC)
# [3] = test system: Staphylococcus aureus Clinical/MRSA; test: Broth microdilution MIC; assay type: cell-based; conditions: Staphylococcus aureus, MRSA, read-out: Minimum Inhibitory Concentrations (MIC)
# [4] = test system: Listeria monocytogenes ATCC 7644; test: Broth microdilution MIC; assay type: cell-based; conditions: for MIC: Listeria monocytogenes, ATCC7644, read-out: Minimum Inhibitory Concentrations (MIC), Listeria monocytogenes ATCC 7644
# [5] = test system: Escherichia coli ATCC 25922; test: Broth microdilution MIC; assay type: cell-based; conditions: Escherichia coli, ATCC25922, read-out: Minimum Inhibitory Concentrations (MIC)
# [6] = test system: Salmonella enterica (food isolate); test: Broth microdilution MIC; assay type: cell-based; conditions: read-out: Minimum Inhibitory Concentrations (MIC)
# [7] = test system: Pseudomonas aeruginosa ATCC 27853; test: Broth microdilution MIC; assay type: cell-based; conditions: for MIC: Pseudomonas aeruginosa, ATCC27853, read-out: Minimum Inhibitory Concentrations (MIC)
# [8] = test system: Staphylococcus aureus ATCC 25923; test: Biofilm inhibition assay (crystal violet); assay type: cell-based
# Experimental: (§1) The ability of the candidate compounds to inhibit biofilm formation was evaluated by determining the minimum biofilm inhibitory concentration (MBIC) against the biofilm-forming strains Staphylococcus aureus ATCC 25923 and Listeria monocytogenes ATCC 7644. Overnight bacterial cultures were diluted in fresh, pre-warmed Mueller–Hinton broth (MHB) and incubated at 37 °C with constant shaking at 220 rpm. Once the cultures reached the exponential growth phase (OD600 = 0.3–0.5), they were standardized to a final concentration of 4 × 10^6 CFU/mL.
# (§2) Plates were incubated at 37 °C for 24 to 48 h, depending on the bacterial strain. After incubation, the planktonic cells were carefully aspirated to preserve the integrity of the biofilm layer. Wells were gently rinsed with sterile ultrapure Milli-Q water and air-dried at 60 °C for 1 h to fix the biofilms. Biofilm formation was quantified using a crystal violet (CV) staining method. Wells were stained with 100 µL of 0.1% CV solution and incubated at room temperature for 1 h. Excess dye was removed by rinsing with sterile ultrapure Milli-Q water, followed by air-drying. Bound CV was solubilized with 100 µL of 70% ethanol and incubated for 30 min. The solubilized dye was transferred to a fresh plate, and absorbance was measured at 595 nm using a microplate reader (Bio-Tek EL808, Winooski, VT, USA). Absorbance values were directly proportional to biofilm biomass. Untreated bacterial cultures served as positive controls for biofilm formation, while sterile MHB served as the negative control.
# [9] = test system: Listeria monocytogenes ATCC 7644; test: Biofilm inhibition assay (crystal violet); assay type: cell-based; conditions: Listeria monocytogenes, ATCC7644, read-out: biofilm inhibition
# Experimental: as §1
# as §2, with “Aliquots (50 µL) of the standardized bacterial suspension were inoculated into 96-well microtiter plates containing the test compounds at final concentrations of 100, 50, 25, and 12.5 µg/mL. Plates” for “Plates”
# HEK293 cells = test: Cytotoxicity MTS assay; assay type: cell-based, human; conditions: Homo sapiens, HEK293, 48 h, read-out: IC50 HEK293
# Experimental: (§3) The cytotoxic potential of the selected drug candidates was evaluated using the CellTiter 96® AQueous One Solution Cell Proliferation Assay (Promega, Madison, WI, USA), following the manufacturer’s protocol. Human cell lines RPE1 and HEK293 were cultured at 37 °C in a humidified incubator with 5% CO2. Test compounds were dissolved in the appropriate growth medium and serially diluted across a range of concentrations in 96-well microtiter plates. Each well was seeded with 5000 cells and incubated for 48 h under standard culture conditions. Following this incubation period, 20 µL of MTS reagent was added to each well, and the plates were further incubated for 3 h to allow for color development. Absorbance was measured at 490 nm using a microplate reader to determine cell viability. Cytotoxicity was quantified as the half-maximal inhibitory concentration (IC50), defined as the concentration of compound that reduced cell viability by 50%. […] IC50 values were calculated using GraFit 6.0 software by plotting compound concentration against absorbance and fitting the data to a sigmoidal dose–response curve.
# RPE1 cells = test: Cytotoxicity MTS assay; assay type: cell-based, human; conditions: Homo sapiens, RPE-1, 48 h, read-out: IC50 RPE1
# Experimental: as §3
# [10] = test system: Listeria monocytogenes ATCC 7644; test: Time-resolved growth kinetics; assay type: cell-based; conditions: MIC and ½ MIC
# Experimental: The antimicrobial activity of the candidate compounds against Staphylococcus aureus ATCC 25923 and Listeria monocytogenes ATCC 7644 was further evaluated using a time-resolved growth kinetics assay in 96-well microtiter plates. Overnight bacterial cultures were diluted in fresh, pre-warmed Mueller–Hinton broth (MHB) and incubated at 37 °C with orbital shaking at 220 rpm. Upon reaching the exponential growth phase (OD600 = 0.3–0.5), cultures were standardized to a final concentration of 5 × 10^4 CFU/mL. Aliquots (50 µL) of the standardized inoculum were dispensed into wells containing either no antimicrobial agent (negative control) or the test compounds at concentrations corresponding to ½ MIC and MIC. Bacterial growth was continuously monitored over a 24 h period by measuring absorbance at 595 nm every 10 min using a Bio-Tek EL808 microplate reader (Winooski, VT, USA). Growth kinetics were assessed by comparing the optical density profiles of treated samples against the untreated control. Each experiment was performed independently twice, with all conditions tested in triplicate. Data are presented as the mean values of these replicates.
# [11] = S. aureus ATCC 25923, 6.25 µg/mL
# [12] = S. aureus ATCC 25923, 12.5 µg/mL
# [13] = S. aureus ATCC 25923, 100 µg/mL
Structure (SMILES),MIC [1],MIC [2],MIC [3],MIC [4],MIC [5],MIC [6],MIC [7],"biofilm inhibition [8, 11]","biofilm inhibition [8, 12]","biofilm inhibition ([8]; S. aureus ATCC 25923, 25 µg/mL)","biofilm inhibition ([8]; S. aureus ATCC 25923, 50 µg/mL)","biofilm inhibition [8, 13]",inhibition at 6.25 µg/mL [9],inhibition at 12.5 µg/mL [9],inhibition at 25 µg/mL [9],inhibition at 50 µg/mL [9],inhibition at 100 µg/mL [9],pIC50 (HEK293 cells),pIC50 (RPE1 cells),effect on bacterial growth [10],further results
"CCCCCCCCCCCCCCCCNC1C[N+]2(CCC[N+]34CCC(CC3)C(NCCCCCCCCCCCCCCCC)C4)CCC1CC2 (racemic) [2(QC16)3, (±)-1,1′-(Propane-1,3-diyl) bis(3-(hexadecylamino)quinuclidinium) dibromide]",38 µM,19 µM,> 75 µM,9 µM,> 75 µM,> 75 µM,> 75 µM,> 2%,11%,> 80%,exceeding 90%,exceeding 90%,91%,93%,94%,94%,97%,4.68,4.16,pronounced inhibitory effect,
"CCCCCCCCCCCCCCCCNC1C[N+]2(CCCCCC[N+]34CCC(CC3)C(NCCCCCCCCCCCCCCCC)C4)CCC1CC2 (racemic) [2(QC16)6, (±)-1,1′-(Hexane-1,6-diyl) bis(3-(hexadecylamino)quinuclidinium) dibromide]",9 µM,5 µM,38 µM,38 µM,19 µM,75 µM,> 75 µM,6%,> 30%,> 80%,> 90%,95%,40%,69%,81%,88%,89%,5.15,5.30,pronounced inhibitory effect,Minimum Inhibitory Concentrations (MIC) ([1]; Staphylococcus aureus ATCC 25923): 9 µM; Minimum Inhibitory Concentrations (MIC) ([4]; Listeria monocytogenes ATCC 7644): 19 µM; Minimum Inhibitory Concentrations (MIC) ([7]; Pseudomonas aeruginosa ATCC 27853): largely inactive
